Experimental data as given in the supplement of paper PMC10307832.

Tests used:
Ispinesib = compound: Cc1ccc(C(=O)N(CCCN)[C@@H](c2nc3cc(Cl)ccc3c(=O)n2Cc2ccccc2)C(C)C)cc1 [Ispinesib]; test: relative viability (nuclei count vs DMSO), 5 days (fraction); higher = more cells survive
How it was run: (§1)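 Viability is treated-well nuclei as a fraction of vehicle-well nuclei, reported as the median across plates. Before counting, lung cancer cell lines were kept overnight at 37 °C in 1536-well plates, pinned with five √10-spaced library-drug doses on vehicle-anchored plates, and left 5 days without medium change, then fixed, permeabilised and Hoechst-stained in one step, imaged at 4× and counted by MetaXpress. A plate passed only if control CV was below 25% and at least one doubling occurred.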

Linsitinib = compound: C[C@]1(O)C[C@@H](c2nc(-c3ccc4ccc(-c5ccccc5)nc4c3)c3c(N)nccn32)C1 [Linsitinib]; test: as above
How it was run: as §1

Cell Line | relative viability (Ispinesib; 0.001 µM) | relative viability (Ispinesib; 0.003162 µM) | relative viability (Ispinesib; 0.01 µM) | relative viability (Ispinesib; 0.03162 µM) | relative viability (Ispinesib; 0.1 µM) | relative viability (Linsitinib; 0.01 µM) | relative viability (Linsitinib; 0.03162 µM) | relative viability (Linsitinib; 0.1 µM) | relative viability (Linsitinib; 0.3162 µM) | relative viability (Linsitinib; 1 µM) | relative viability (Linsitinib; 1 µM, anchor plate)
NCI-H322M | 1.13 | 0.945 | 0.914 | 0.472 | 0.58 | 0.954 | 0.993 | 0.95 | 0.814 | 0.701 | 0.95
NCI-H358 | 1.15 | 1 | 1 | 0.528 | 0.313 | 0.86 | 0.978 | 0.9 | 0.809 | 0.522 | 0.749
NCI-H441 | 1.06 | 1.1 | 0.765 | 0.272 | 0.297 | 0.951 | 0.981 | 0.986 | 0.497 | 0.636 | 0.519
NCI-H460 | 1.03 | 1.03 | 1.14 | 0.935 | 0.0826 | 0.966 | 0.927 | 0.977 | 0.872 | 0.949 | 0.789
NCI-H520 | 0.977 | 0.997 | 0.903 | 0.341 | 0.251 | 0.97 | 0.948 | 1.06 |  | 1.02 | 0.951
NCI-H522 | 0.965 | 1.13 | 1 | 0.815 | 0.48 | 0.969 | 0.927 | 0.838 | 0.742 | 0.872 | 
NCI-H596 | 0.993 | 0.933 | 1.03 | 0.999 | 0.444 | 1.04 | 0.942 | 0.998 | 0.933 | 0.886 | 1.06
NCI-H647 | 0.995 | 1.05 | 1.18 | 0.188 | 0.153 | 0.968 | 0.881 | 1.03 |  | 0.859 | 1.18
NCI-H650 | 1.01 | 1.14 | 1.02 | 0.629 | 0.212 | 0.889 | 0.996 | 0.875 |  | 0.783 | 0.914
NCI-H661 | 0.968 | 0.983 | 0.993 | 0.742 | 0.289 | 0.926 | 1.09 | 1.01 | 0.853 | 1.04 | 0.63
NCI-H727 | 1.16 | 1.09 | 1.14 | 0.845 | 0.543 | 0.961 | 0.866 | 0.895 | 0.461 | 0.591 | 0.305
NCI-H838 | 1.05 | 1.03 | 1.08 | 0.747 | 0.343 | 0.975 | 0.905 | 0.906 | 0.493 | 0.667 | 1.06
NCI-H1299 | 1.05 | 1.05 | 1.07 | 1.05 | 0.461 | 1.01 | 0.999 | 1.02 | 0.918 | 1.02 | 0.977
NCI-H1355 | 1.08 | 1.06 | 1.09 | 0.728 | 0.274 | 1.02 | 0.984 | 0.947 | 0.787 | 0.615 | 0.848
NCI-H1395 | 0.95 | 1.06 | 0.854 | 0.44 | 0.354 | 0.935 | 0.79 | 1.03 | 0.806 | 0.893 | 1.17
NCI-H1437 | 1.07 | 1.11 | 1.14 | 0.995 | 0.247 | 1.01 | 0.963 | 0.997 | 0.945 | 1.01 | 1.02

Cell Line | relative viability (Ispinesib; 0.001 µM) | relative viability (Ispinesib; 0.003162 µM) | relative viability (Ispinesib; 0.01 µM) | relative viability (Ispinesib; 0.03162 µM) | relative viability (Ispinesib; 0.1 µM) | relative viability (Linsitinib; 0.01 µM) | relative viability (Linsitinib; 0.03162 µM) | relative viability (Linsitinib; 0.1 µM) | relative viability (Linsitinib; 0.3162 µM) | relative viability (Linsitinib; 1 µM) | relative viability (Linsitinib; 1 µM, anchor plate)
NCI-H1563 | 1.13 | 0.97 | 0.938 | 0.927 | 0.772 | 1.03 | 0.924 | 1.09 | 1.3 | 0.93 | 1.22
NCI-H1623 | 1.07 | 1.03 | 1.05 | 1.02 | 0.722 | 0.889 | 0.955 | 0.889 |  | 0.815 | 
NCI-H1648 | 1.02 | 1.13 | 0.792 | 1.14 | 0.387 | 1.11 | 0.972 | 0.868 | 0.345 | 0.8 | 
NCI-H1650 | 1.07 | 1.02 | 0.912 | 0.261 | 0.196 | 0.917 | 0.894 | 0.926 | 0.477 | 0.665 | 
NCI-H1651 | 1.06 | 1.05 | 1.06 | 0.927 | 0.549 | 0.969 | 1 | 0.942 | 0.826 | 0.939 | 1.01
NCI-H1666 | 0.997 | 1.05 | 0.953 | 0.79 | 0.508 | 0.975 | 0.983 | 1.04 | 0.755 | 0.747 | 0.878
NCI-H1703 | 1.28 | 0.88 | 0.6 | 0.163 | 0.137 | 0.881 |  | 0.873 | 0.577 | 0.492 | 0.9
NCI-H1734 | 0.971 | 1.01 | 1.09 | 0.612 | 0.262 | 1.06 | 1.04 | 0.88 | 0.674 | 0.721 | 0.862
NCI-H1755 | 0.972 | 1.1 | 1.1 | 0.745 | 0.351 | 0.976 | 1.01 | 1.01 | 0.769 | 0.915 | 0.996
NCI-H1792 | 1.18 | 1.31 | 0.995 | 0.492 | 0.329 | 0.932 | 0.897 | 0.712 | 0.455 | 0.33 | 0.571
NCI-H1793 | 0.977 | 1 | 1.19 | 0.69 | 0.201 | 0.867 | 0.906 | 0.917 | 0.757 | 0.682 | 0.903
NCI-H1915 | 0.971 | 1.09 | 1.02 | 0.451 | 0.209 | 1.02 | 1.04 | 1.01 | 0.828 | 0.684 | 1.07
NCI-H1944 | 1.02 | 0.997 | 1.07 | 0.425 | 0.306 | 1.03 | 1.08 | 0.949 | 0.579 | 0.535 | 1.2
NCI-H1975 | 1 | 0.952 | 1 | 0.742 | 0.184 | 0.939 | 0.927 | 0.869 | 0.835 | 0.775 | 0.984
NCI-H1993 | 0.959 | 1.05 | 1.05 | 0.912 | 0.651 | 1.03 | 0.916 | 0.879 | 0.622 | 0.607 | 0.759
NCI-H2009 | 1.03 | 1.02 | 1.04 | 0.606 | 0.481 | 0.974 | 0.994 | 1.06 | 0.669 | 0.979 | 1.18
